Counter-ions that a name gives are not always drawn.
Columns and labels:
heart rate [1] = test: Effect on heart rate in anesthetized cats (Table I); assay type: in vivo
heart rate [2] = test: Effect on heart rate in anesthetized dogs (Table II); assay type: in vivo
[3] = LD50 in mice, observation time of 14 days; conditions: mouse, in vivo, iv, observation time of 14 days
Source text: Additionally, it should be noted that at all dosage levels the test compounds were tolerated very well and produced no toxic side-effects.

Row | Compound | Decrease in heart rate (heart rate [1]; 0.5 mg/kg i.v.) [beats/minute] | Duration of Effective action (heart rate [1]; 0.5 mg/kg i.v.) [min] | Decrease in heart rate (heart rate [1]; 1.0 mg/kg i.v.) [beats/minute] | Duration of Effective action (heart rate [1]; 1.0 mg/kg i.v.) [min] | Decrease in heart rate (heart rate [1]; 2.0 mg/kg i.v.) [beats/minute] | Duration of Effective action (heart rate [1]; 2.0 mg/kg i.v.) [min] | Decrease in heart rate (heart rate [2]; 0.25 mg/kg i.v.) [beats/minute] | Duration of Effective action (heart rate [2]; 0.25 mg/kg i.v.) [min] | Decrease in heart rate (heart rate [2]; 1.0 mg/kg i.v.) [beats/minute] | Duration of Effective action (heart rate [2]; 1.0 mg/kg i.v.) [min] | also measured
1 | COc1ccc(CCN(C)CCCn2nc(C)c3cc(OC)c(OC)cc3c2=O)cc1OC.Cl [A, 1-[4-methyl-6,7-dimethoxy-1(2H)-phthalazinone-2-yl]-3-[N-methyl-N-(2-(3,4-dimethoxyphenyl)-ethyl)-amino]-propane hydrochloride] | -16 | > 50 | -23 | > 70 | -37 | > 70 | -10 | 17 | -16 | 24 | Decrease in heart rate (heart rate [1]; 2.0 mg/kg i.d.): -25 beats/minute; Duration of Effective action (heart rate [1]; 2.0 mg/kg i.d.): > 74 min; Decrease in heart rate (heart rate [1]; 4.0 mg/kg i.d.): -34 beats/minute; Duration of Effective action (heart rate [1]; 4.0 mg/kg i.d.): > 60 min; Decrease in heart rate (heart rate [1]; 10.0 mg/kg i.d.): -41 beats/minute; Duration of Effective action (heart rate [1]; 10.0 mg/kg i.d.): > 50 min; Decrease in heart rate (heart rate [2]; 0.5 mg/kg i.v.): -12 beats/minute; Duration of Effective action (heart rate [2]; 0.5 mg/kg i.v.): 15 min; LD50 at 336 h [3]: 63 mg/kg
2 | COc1ccc(CCN(C)CCCn2nc(C)c3cc(OC)c(OC)cc3c2=O)cc1.Cl [B, 1-[4-methyl-6,7-dimethoxy-1(2H)-phthalazinone-2-yl]-3-[N-methyl-N-(2-(4-methoxyphenyl)-ethyl)-amino]-propane hydrochloride] |  |  |  |  |  |  | -6 | 24 | -23 | 46 | 
3 | COc1ccc(CCN(C)CCCn2nc(C(C)C)c3cc(OC)c(OC)cc3c2=O)cc1OC [C, 1-[4-isopropyl-6,7-dimethoxy-1(2H)-phthalizinone-2-yl]-3-[N-methyl-N-(2-(3,4-dimethoxyphenyl)-ethyl)-amino]-propane hydrochloride] |  |  |  |  |  |  |  |  | -10 | 17 | Decrease in heart rate (heart rate [2]; 2.0 mg/kg i.v.): -29 beats/minute; Duration of Effective action (heart rate [2]; 2.0 mg/kg i.v.): 10 min
4 | COc1ccc(CCN(C)CCCn2ncc3cc(OC)c(OC)cc3c2=O)cc1.Cl [D, 1-[6,7-dimethoxy-1(2H)-phthalazinone-2-yl]-3-[N-methyl-N-(2-(4-methoxyphenyl)-ethyl)-amino]-propane hydrochloride] | -6 | 10 | -13 | 25 | -14 | 25 |  |  |  |  | 
5 | COc1ccc(CCN(C)CCn2nc(C)c3cc(OC)c(OC)cc3c2=O)cc1OC [E, 1-[4-methyl-6,7-dimethoxy-1(2H)-phthalizinone-2-yl]-3-[N-methyl-N-(2-(3,4-dimethoxyphenyl)-ethyl)-amino]-ethane hydrochloride] |  |  | -10 | 9 | -13 | 10 |  |  |  |  | 
